Results published in patent US20080076772A1, “Anti-Inflammatory Agents” (Pharma Mar S.A. Sociedad Unipersonal, priority 2004, published 2008).
Like-named read-outs stand apart in the source and are kept apart here.

Experiments:
[1] = test system: Tumour-Associated Macrophages (TAM); assay: Cell viability of Tumour-Associated Macrophages from ovarian cancer ascites; assay type: cell-based; conditions: Homo sapiens, Macrophage; 10 nM, 48 h, three patients
Text: (§1) Tumour-associated macrophages (TAM) and tumour cells were isolated from the ascitic fluid of patients with diagnosed ovarian adenocarcinoma, admitted to the Clinic of Obstetrics and Gynecology of the University of Milan-Bicocca, S Gerardo Hospital. Cells contained in the ascitic fluid were centrifuged and isolated by differential density gradients of Ficoll and Percoll, and plastic adherence as previously described (see Allavena, P., Peccatori, F., Maggioni, D., Erroi, A., Sironi, M., Colombo, N., Lissoni, A., Galazka, A., Meiers, W., Mangioni, C., et al. Intraperitoneal recombinant gamma-interferon in patients with recurrent ascitic ovarian carcinoma: modulation of cytotoxicity and cytokine production in tumour-associated effectors and of major histocompatibility antigen expression on tumour cells. Cancer Res, 50: 7318-7323, 1990). Purity of TAM and tumour cell preparations was usually>65±10% as defined by morphology and phenotype analysis. Cells were treated with ecteinascidin 743 at the indicated concentrations and cultured for 1-5 days, as specified in figure legends. At the end of the incubation period cells were collected, washed and used for DNA analysis or functional assays.
Apoptosis was detected by staining with AnnexinV and PI.
We also tested Tumour-Associated Macrophages (TAM) isolated from the ascites of non-treated ovarian adenocarcinoma patients. […]

monocytes = assay: Monocytopenia in cancer patients after in vivo treatment (blood formula); set-up: species or system human; conditions: of 9 patients; decrease = 25% inhibition in at least one cycle; % of leukocytes and monocytes/ul of blood
Text: We also investigated whether the in vivo treatment with ecteinascidin 743 caused a measurable monocytopenia in cancer patients. Monocyte values were obtained from blood formula during routine clinical analysis.

CCL2 [2] = assay: CCL2 production by LPS-stimulated monocytes (ELISA); assay type: cell-based, human
Description: (§2) Supernatants of untreated cells or cells treated with ecteinascidin 743 or other anti-neoplastic agents were collected after 24 h culture and frozen. Monocytes, macrophages and TAM were stimulated with 100 ng/ml LPS to induce maximal cytokine production. Determination of cytokines CCL2, TNF and IL-6 was measured by specific ELISA following the manufacturer's instructions.
(§3) Monocytes and in vitro differentiated macrophages were stimulated with LPS (100 ng/ml). After 1 h LPS stimulation they were treated with ecteinascidin 743. After 16 h incubation, cell supernatants were harvested and tested in ELISA. Under these treatment conditions cell viability was usually >85% for concentrations up to 5 nM. […] Mean inhibition at 5 nM, for monocytes, was 65% (range 50-80%, n=5) and was 50% (range 25-75%, n=5) for in vitro differentiated macrophages. Results are mean+/−SE of 3-5 experiments
Similar results were obtained when monocytes were stimulated with LPS (100 ng/ ml) and treated with ET743 and the other ecteinascidin compounds, although the overall inhibition was less marked compared with the previous experiment where the tumor supernantant was used as CCL2-inducing stimulus.
CCL2 and TNF production by LPS-stimulated monocytes treated with the indicated doses of the anti-tumor agents was also tested. Cell supernatants were harvested after 24 h-incubation and tested in ELISA. […] None of these compounds interfered with the production of TNF.
A major finding of our work is the inhibitory activity of ecteinascidin 743 on the production of inflammatory cytokines. Among various inflammatory cytokines produced by monocyte/macrophages we have tested IL-6, TNF and the chemokine CCL2. CCL2 is a chemokine attracting monocytes and other leukocyte subsets, and is produced both by monocyte/macrophages and several tumour cells. It has been described that ovarian adenocarcinoma cells produce huge amounts of CCL2 and that their levels correlate with the macrophage content of tumours. CCL2 is therefore one of the most important factors regulating monocyte/macrophages recruitment at the tumour site. […] Thus, lower levels of CCL2 by TAM and tumour cells are likely to reduce the number of macrophages recruited at the tumour site. In the above described in vitro experiments ecteinascidin 743 was present throughout the 16-h culture period. We also checked whether a shorter in vitro exposure to ecteinascidin 743 was sufficient to affect cytokine production. Monocytes exposed to ecteinascidin 743 were washed after 1 hour culture and replaced in fresh medium.

IL-6 [3] = assay: IL-6 production by LPS-stimulated in vitro differentiated macrophages (ELISA); assay type: cell-based; conditions: Homo sapiens, Macrophage; 5 nM, n=2; read-out: overall inhibition of IL-6 production, macrophages
Description: as §2, §3
We also tested two other cytokines, IL-6 and TNF, produced by macrophages and tumour cells, which have inflammatory properties and also act as growth factors for some tumours. IL-6 production was always reduced after ecteinascidin 743 treatment, with an overall inhibition at 5 nM of 54% (range 51-57%, n=2) and 69% (range 66-72%, n=2), in monocytes and macrophages, respectively (FIG. 6B). […]

IL-6 [4] = assay: IL-6 release in TAM (ELISA); assay type: cell-based; conditions: Homo sapiens, n=4
Text: as §1, with “At the end of the incubation period cells were collected, washed and used for DNA analysis or functional assays.” left out
Supernatants of untreated cells or cells treated with ecteinascidin 743 or other anti-neoplastic agents were collected after 24 h culture and frozen. […] Determination of cytokines CCL2, TNF and IL-6 was measured by specific ELISA following the manufacturer's instructions. […]

CCL2 [5] = assay: CCL2 production induced by exposure of monocytes to tumor cell supernatants; assay type: cell-based, human; conditions: Homo sapiens, Monocyte; for inhibition at 0.0025 µM: 2.5 nM; for inhibition at 0.005 µM: 5 nM
Description: We also tested five other ecteinascidin compounds (Table 2) for their capacity to inhibit the production of CCL2 by human monocytes in vitro. […] The extent of inhibition of ET637 Derivative A was even more pronouced compared to ET743. In Table 2 is shown that the production of CCL2, induced by exposure of monocytes to tumor cell supernatants, is inhibited up to 80% and 97% at 2.5 and 5 nM, respectively, in two different donors. In the same experiment ET743 inhibited between 30% and 70%.

[6] = read-out: % inhibition of CCL2 production, Donor A
[7] = read-out: % inhibition of CCL2 production, Donor B

Structure (SMILES): COc1cc2c(cc1O)CCN[C@]21CS[C@@H]2c3c(OC(C)=O)c(C)c4c(c3[C@H](COC1=O)N1[C@@H]2[C@H]2c3c(cc(C)c(OC)c3O)C[C@@H]([C@@H]1O)N2C)OCO4 [ecteinascidin 743]
- mortality at 0.01 µM [1]: 40 to 70%
- patients showing a decrease in the number of monocytes (monocytes): 7
- inhibition at 0.005 µM (CCL2 [2]; Homo sapiens, Monocyte, 5 nM, LPS 100 ng/ml, 16 h, n=5): 65%
- inhibition of CCL2 production (CCL2 [2]; monocytes washed after 1 hour culture with drug, fresh medium): 57%
- inhibition of CCL2 production (CCL2 [2]; monocytes, 16 h-treatment): 69%
- inhibition at 0.005 µM (IL-6 [3]): 69%
- inhibition at 0.005 µM (IL-6 [4]; 5 nM): 35%
- inhibition at 0.01 µM (IL-6 [4]; 10 nM): 47%
- inhibition at 0.0025 µM (CCL2 [5]; [6]): 30%
- inhibition at 0.0025 µM (CCL2 [5]; [7]): 60%
- inhibition at 0.005 µM (CCL2 [5]; [6]): 70%
- inhibition at 0.005 µM (CCL2 [5]; [7]): 70%
